The target in one test is human DGKα (Homo sapiens, UniProt P23743). Put plainly: DGKα Biochemical Activity Assay (ADP-Glo).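 Further: luminescent detection of ADP produced as DGKα phosphorylates DAG to phosphatidic acid, IC50 from four-parameter nonlinear curve fit.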 As to conditions: recombinant DGKα 1 nM, 100 μM ATP, 18:1 DAG/POPS/octylglucoside micelles, 1 hour at 25° C.; geometric mean; read-out: HTBS DGKa 1X ATP KM IC50.
In test [1] the test system is Jurkat NFκB-luciferase cells. Put plainly: Jurkat NFκB-Luciferase Assay. The class given is cell-based. As to conditions: Homo sapiens. The method, boiled down: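 Luminescence from One-Glo Ex, read 7 min post-addition, reports NFκB activation in Jurkat luciferase reporter cells. Cells, diluted to 1 million cells/ml in 10% FBS RPMI, were dispensed onto plates holding compound and washed, pre-bound antibody.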

Setting [2] is: Jurkat NFκB-luciferase cells activated with anti-CD3 antibody (OKT3), 2.5 hrs at 37° C., geometric mean, read-out: DGK NFKb Luciferase EC50.

Read-outs that look alike come from different tables or passages of the source.

25 compounds from patent US11976072B2, “Diacylglycerol kinase modulating compounds” (priority 2021, dated 2024) can be followed below.

Sequence of human DGKα (P23743 whole entry): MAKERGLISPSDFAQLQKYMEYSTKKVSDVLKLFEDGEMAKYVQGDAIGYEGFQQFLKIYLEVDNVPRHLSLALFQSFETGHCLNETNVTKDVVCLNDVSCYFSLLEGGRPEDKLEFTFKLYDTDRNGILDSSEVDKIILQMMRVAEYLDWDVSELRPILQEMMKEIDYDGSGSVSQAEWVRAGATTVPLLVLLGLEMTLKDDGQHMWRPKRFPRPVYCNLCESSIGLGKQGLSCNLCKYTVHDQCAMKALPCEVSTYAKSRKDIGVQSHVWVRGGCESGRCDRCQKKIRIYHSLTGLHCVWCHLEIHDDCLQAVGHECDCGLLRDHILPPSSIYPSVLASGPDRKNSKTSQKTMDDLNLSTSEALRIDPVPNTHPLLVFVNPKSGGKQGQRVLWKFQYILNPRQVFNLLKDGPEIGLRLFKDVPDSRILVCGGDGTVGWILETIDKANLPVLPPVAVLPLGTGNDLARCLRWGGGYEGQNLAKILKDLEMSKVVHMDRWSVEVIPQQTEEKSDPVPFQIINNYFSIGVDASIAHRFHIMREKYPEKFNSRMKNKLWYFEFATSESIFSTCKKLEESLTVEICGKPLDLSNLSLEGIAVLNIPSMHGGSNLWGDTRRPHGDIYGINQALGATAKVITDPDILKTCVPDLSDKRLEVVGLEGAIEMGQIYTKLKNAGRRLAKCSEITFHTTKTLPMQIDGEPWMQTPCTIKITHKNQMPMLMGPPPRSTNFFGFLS

With `Fc1ccc2c(c(N3CCCc4c(C#CC5CC(F)(F)C5)cncc43)nc3nncn32)c1F` [Example 14, 5-(5-((3,3-difluorocyclobutyl)ethynyl)-3,4-dihydro-1,7-naphthyridin-1(2H)-yl)-6,7-difluoro-[1,2,4]triazolo[4,3-a]quinazoline], the half-inhibitory concentration (IC50) on human DGKα is 8.19 nM. Also, the concentration giving a half-maximal response (EC50) in test [1] (setting [2]) was found to be 1.4 nM.

`Cc1nnc2nc(N3CCCc4c(C#CC(C)(C)C(=O)N5CCOC(C)(C)C5)cccc43)c3c(F)cccc3n12` [Example 70, 1-(2,2-dimethylmorpholino)-4-(1-(6-fluoro-1-methyl-[1,2,4]triazolo[4,3-a]quinazolin-5-yl)-1,2,3,4-tetrahydroquinolin-5-yl)-2,2-dimethylbut-3-yn-1-one]: the IC50 at human DGKα turned out to be 29.2 nM. The concentration for a half-maximal effect (EC50) in test [1] (setting [2]) came out at 5.62 nM.

Turning to `CC(C)(C#Cc1cc(F)cc(N(CC(F)F)c2nc3nncn3c3c(Cl)cc(F)cc23)c1)C(F)F` [Example 46, 9-chloro-N-[3-(4,4-difluoro-3,3-dimethyl-but-1-ynyl)-5-fluoro-phenyl]-N-(2,2-difluoroethyl)-7-fluoro-[1,2,4]triazolo[4,3-a]quinazolin-5-amine], on human DGKα, the 50% inhibitory concentration (IC50) was 15.6 nM. The EC50 in test [1] (setting [2]) is 1.75 nM.

`CC(C)(O)C#Cc1cccc2c1CCCN2c1nc2nncn2c2c(F)cc(F)cc12` [Example 120]: on human DGKα, the IC50 came out at 4.99 nM. For the same compound, the 50% effective concentration (EC50) in test [1] (setting [2]) was 12.3 nM.

With `Cc1nnc2nc(N3CCOCc4c3ccnc4C#CC(C)(C)C(F)F)c3c(F)cccc3n12` [Example 136, 6-(4,4-difluoro-3,3-dimethylbut-1-yn-1-yl)-1-(6-fluoro-1-methyl-[1,2,4]triazolo[4,3-a]quinazolin-5-yl)-1,2,3,5-tetrahydropyrido[4,3-e][1,4]oxazepine], on human DGKα, the IC50 was 11.1 nM. Besides, in test [1] (setting [2]), the 50% effective concentration (EC50) worked out at 13.9 nM.

As for `Cc1nnc2nc(N3CCOCc4c(C#CC(C)(C)NS(=O)(=O)C5(C(F)F)CC5)cccc43)c3c(F)cccc3n12` [Example 178, 1-(Difluoromethyl)-N-[3-[1-(6-fluoro-1-methyl-[1,2,4]triazolo[4,3-a]quinazolin-5-yl)-3,5-dihydro-2H-4,1-benzoxazepin-6-yl]-1,1-dimethyl-prop-2-ynyl]cyclopropanesulfonamide], the IC50 at human DGKα was determined as 44.9 nM. Moreover, the EC50 in test [1] (setting [2]) turned out to be 10.2 nM.

Consider `Cc1nnc2nc(N(CC(F)F)c3cccc(C#CC4(C(F)(F)F)CC4)c3F)c3c(F)cccc3n12` [Example 54, N-(2,2-difluoroethyl)-6-fluoro-N-[2-fluoro-3-[2-[1-(trifluoromethyl)cyclopropyl]ethynyl]phenyl]-1-methyl-[1,2,4]triazolo[4,3-a]quinazolin-5-amine], for which, at human DGKα, the IC50 was found to be 32.8 nM. Moreover, in test [1] (setting [2]), the EC50 was 1.64 nM.

Turning to `Cc1nnc2nc(N3CCCc4c(C#CC5(C)COC5)cccc43)c3cc(F)ccc3n12` [Example 29, 7-fluoro-1-methyl-5-(5-((3-methyloxetan-3-yl)ethynyl)-3,4-dihydroquinolin-1(2H)-yl)-[1,2,4]triazolo[4,3-a]quinazoline], the half-maximal inhibitory concentration (IC50) at human DGKα worked out at 3.31 nM. The EC50 in test [1] (setting [2]) is 0.66 nM.

With `Cc1nnc2nc(N(CC(F)F)c3cc(F)cc(C#CC4(O)CCC4)c3)c3c(F)c(F)ccc3n12` [Example 238, 1-[2-[3-[2,2-difluoroethyl-(6,7-difluoro-1-methyl-[1,2,4]triazolo[4,3-a]quinazolin-5-yl)amino]-5-fluoro-phenyl]ethynyl]cyclobutanol], the IC50 at human DGKα is 7.08 nM. The concentration for a half-maximal effect (EC50) in test [1] (setting [2]) turned out to be 24.5 nM.

Take `CC(C)(C#Cc1cc(N(CC(F)F)c2nc3nncn3c3ccc(F)c(F)c23)ccn1)C(F)(F)F` [Example 93, N-(2,2-difluoroethyl)-6,7-difluoro-N-(2-(4,4,4-trifluoro-3,3-dimethylbut-1-yn-1-yl)pyridin-4-yl)-[1,2,4]triazolo[4,3-a]quinazolin-5-amine]: at human DGKα, the concentration for half-maximal inhibition (IC50) is 8.14 nM. For the same compound, in test [1] (setting [2]), the EC50 worked out at 2.63 nM.

Consider `Cc1nnc2nc(N3CCCc4c(C#CC(C)(C)c5ccccn5)cccc43)c3c(F)cccc3n12` [Example 71, 6-fluoro-1-methyl-5-(5-(3-methyl-3-(pyridin-2-yl)but-1-yn-1-yl)-3,4-dihydroquinolin-1(2H)-yl)-[1,2,4]triazolo[4,3-a]quinazoline], for which, on human DGKα, the concentration for half-maximal inhibition (IC50) was 124 nM. Moreover, the EC50 in test [1] (setting [2]) is 11.3 nM.

For `CC(C)(C#Cc1cccc(N(CC(F)F)c2nc3nncn3c3ccc(F)cc23)c1F)C(F)F` [Example 57, N-[3-(4,4-difluoro-3,3-dimethyl-but-1-ynyl)-2-fluoro-phenyl]-N-(2,2-difluoroethyl)-7-fluoro-[1,2,4]triazolo[4,3-a]quinazolin-5-amine], on human DGKα, the IC50 came out at 46.2 nM. The EC50 in test [1] (setting [2]) came out at 0.669 nM.

For `Fc1cccc2c1c(N1CCCc3c(C#CC4CCC4)cncc31)nc1nncn12` [Example 18, 5-(5-(cyclobutylethynyl)-3,4-dihydro-1,7-naphthyridin-1(2H)-yl)-6-fluoro-[1,2,4]triazolo[4,3-a]quinazoline], at human DGKα, the IC50 came out at 14.2 nM. In addition, the half-maximal effective concentration (EC50) in test [1] (setting [2]) turned out to be 1.5 nM.

For the compound `Cc1nnc2nc(N(CC(F)F)c3cccc(C#CC(C)(C)C(F)F)c3F)c3cc(F)ccc3n12` [Example 55, N-[3-(4,4-difluoro-3,3-dimethyl-but-1-ynyl)-2-fluoro-phenyl]-N-(2,2-difluoroethyl)-7-fluoro-1-methyl-[1,2,4]triazolo[4,3-a]quinazolin-5-amine], at human DGKα, the IC50 was 21.6 nM. Also, the concentration for a half-maximal effect (EC50) in test [1] (setting [2]) stood at 3.42 nM.

`Cc1nnc2nc(N3CCCc4c(C#CC5(CO)CC5)cccc43)c3cc(F)ccc3n12` [Example 234, [1-[2-[1-(7-fluoro-1-methyl-[1,2,4]triazolo[4,3-a]quinazolin-5-yl)-3,4-dihydro-2H-quinolin-5-yl]ethynyl]cyclopropyl]methanol]: the half-inhibitory concentration (IC50) at human DGKα amounted to 3.86 nM. Also, in test [1] (setting [2]), the EC50 turned out to be 23.3 nM.

Consider `Cc1nnc2nc(N3CCCc4c(C#CC5(O)CCCC5)cccc43)c3c(F)cccc3n12` [Example 205, 1-((1-(6-fluoro-1-methyl-[1,2,4]triazolo[4,3-a]quinazolin-5-yl)-1,2,3,4-tetrahydroquinolin-5-yl)ethynyl)cyclopentan-1-ol], for which the IC50 on human DGKα was 13.9 nM. The concentration giving a half-maximal response (EC50) in test [1] (setting [2]) was determined as 16.6 nM.

Turning to `Cc1nnc2nc(N3CCOCc4c(C#CC(C)(C)NC(=O)OC(C)C(F)(F)F)cccc43)c3c(F)cccc3n12` (centres unmarked) [Example 146, 1,1,1-trifluoropropan-2-yl (4-(1-(6-fluoro-1-methyl-[1,2,4]triazolo[4,3-a]quinazolin-5-yl)-1,2,3,5-tetrahydrobenzo[e][1,4]oxazepin-6-yl)-2-methylbut-3-yn-2-yl)carbamate], the IC50 on human DGKα worked out at 3.54 nM. For the same compound, the concentration giving a half-maximal response (EC50) in test [1] (setting [2]) was determined as 20.5 nM.

As to `Cc1nnc2nc(N3CCCc4c(C#Cc5cnc(C(F)(F)F)nc5)cccc43)c3c(F)cccc3n12` [Example 220, 6-fluoro-1-methyl-5-(5-((2-(trifluoromethyl)pyrimidin-5-yl)ethynyl)-3,4-dihydroquinolin-1(2H)-yl)-[1,2,4]triazolo[4,3-a]quinazoline], at human DGKα, the 50% inhibitory concentration (IC50) was 21.8 nM. In addition, in test [1] (setting [2]), the EC50 is 0.346 nM.

For `CC(C)(O)C#Cc1cccc2c1CCCN2c1nc2nncn2c2ccccc12` [Example 174, 2-methyl-4-[1-([1,2,4]triazolo[4,3-a]quinazolin-5-yl)-3,4-dihydro-2H-quinolin-5-yl]but-3-yn-2-ol], at human DGKα, the IC50 stood at 26.7 nM. For the same compound, in test [1] (Jurkat, […], read-out: DGK NFKb Luciferase EC50 (nM)), the EC50 amounted to 12 nM.

Take `Cc1nnc2nc(N3CCN(C)Cc4c(C#CC5(C(F)(F)F)CC5)cccc43)c3cc(F)ccc3n12` [Example 172, 7-fluoro-1-methyl-5-[4-methyl-6-[2-[1-(trifluoromethyl)cyclopropyl]ethynyl]-3,5-dihydro-2H-1,4-benzodiazepin-1-yl]-[1,2,4]triazolo[4,3-a]quinazoline]: at human DGKα, the IC50 was 8.77 nM. In test [1] (setting [2]), the EC50 came out at 3.23 nM.

For `Cc1nnc2nc(N3CCCc4c(C#Cc5ccnn5C)cccc43)c3cc(F)ccc3n12` [Example 223, 7-fluoro-1-methyl-5-[5-[2-(2-methylpyrazol-3-yl)ethynyl]-3,4-dihydro-2H-quinolin-1-yl]-[1,2,4]triazolo[4,3-a]quinazoline], the IC50 at human DGKα came out at 40.7 nM. In test [1] (setting [2]), the EC50 worked out at 9.21 nM.

`CC(C)(C#Cc1nccc(N(CC(F)F)c2nc3nncn3c3ccc(F)cc23)c1F)C(F)(F)F` [Example 97, N-(2,2-difluoroethyl)-7-fluoro-N-(3-fluoro-2-(4,4,4-trifluoro-3,3-dimethylbut-1-yn-1-yl)pyridin-4-yl)-[1,2,4]triazolo[4,3-a]quinazolin-5-amine]: the half-maximal inhibitory concentration (IC50) at human DGKα is 18 nM. Moreover, the EC50 in test [1] (setting [2]) came to 3.9 nM.

Take `Cc1nnc2nc(N3CCOCc4c3ccnc4C#CC3(C)CC3)c3c(F)cccc3n12` [Example 141, 1-(6-fluoro-1-methyl-[1,2,4]triazolo[4,3-a]quinazolin-5-yl)-6-((1-methylcyclopropyl)ethynyl)-1,2,3,5-tetrahydropyrido[4,3-e][1,4]oxazepine]: the concentration for half-maximal inhibition (IC50) at human DGKα came to 4.76 nM. In test [1] (setting [2]), the EC50 was determined as 5.11 nM.

For `Cc1nnc2nc(N3CCCc4c(C#CC(C)(C)n5ccnc5)cccc43)c3c(F)cccc3n12` [Example 78, 5-(5-(3-(1H-imidazol-1-yl)-3-methylbut-1-yn-1-yl)-3,4-dihydroquinolin-1(2H)-yl)-6-fluoro-1-methyl-[1,2,4]triazolo[4,3-a]quinazoline], at human DGKα, the concentration for half-maximal inhibition (IC50) was 41.2 nM. In test [1] (setting [2]), the EC50 was determined as 7.73 nM.

Regarding `Cc1nnc2nc(N(CC(F)F)c3ccnc(C#CC(C)(C)C(F)(F)F)c3)c3c(F)c(F)ccc3n12` [Example 84, N-(2,2-difluoroethyl)-6,7-difluoro-1-methyl-N-(2-(4,4,4-trifluoro-3,3-dimethylbut-1-yn-1-yl)pyridin-4-yl)-[1,2,4]triazolo[4,3-a]quinazolin-5-amine], the IC50 on human DGKα was 5.06 nM. For the same compound, the EC50 in test [1] (setting [2]) is 2.44 nM.
